In patent US20230313311A1, “METHOD OF ASSESSING THE CIRCADIAN RHYTHM OF A SUBJECT HAVING CANCER AND/OR ASSESSING A TIMING OF ADMINISTRATION OF A MEDICAMENT TO SAID SUBJECT HAVING CANCER” (priority 2020, published 2023):

Tests used:
[1] = system: core-clock downregulated (shBMAL1, shNR1D1 and shPER2) HCT116 cancer cell lines; test: Cell proliferation measured using confluence after time-dependent treatment; type: cell-based, human; details: 10 μM; treated at 18 h, 21 h and 24 h after cell synchronization; confluence over five days; n=3
Method: FIG. 15 illustrates how cell proliferation for an exemplified for a human cancer cell type is affected by Cisplatin treatment in a time-dependent manner;
In addition to the BMAL1 rhythmicity data, preliminary data were obtained pointing towards the differential regulation of cancer cell proliferation based on the timing of drug administration. […] Cell proliferation was measured using confluence over five days. n=3.

[2] = system: BMAL1-Promoter activity in HCT116, SW480 and SW620 colon cancer cells; test: BMAL1-Promoter activity, live-cell bioluminescence recording over five days; type: cell-based, human; details: treated vs control, n=3
Method: Here, the three cell lines were treated with several anti-cancer drugs, including WZB117, Oxaliplatin and cisplatin, and the rhythmic promoter activity of BMAL1 was measured over several days (FIG. 13). […] More specifically, HCT116, SW480 and SW620 colon cancer cells were treated with Oxaliplatin, Cisplatin and WZB117. BMAL1-Promoter activity was measured using live-cell bioluminescence recording over five days. Shown is one representative plot for the control (black) and the treated (grey dashed) condition, n=3.
BMAL1-Promoter activity was measured using live-cell bioluminescence recording over five days. Shown is one representative plot for the control (black) and the treated (grey) condition, n=3.

[3] = system: mice; details: among six mouse categories; treatment tolerability as output; cited from earlier work
[4] = system: SW480 colorectal cancer cells; details: cited from earlier work; for effect of drug administration depending on time: control cells; for effect of drug administration depending on time after BMAL1 downregulation: core-clock gene BMAL1 downregulated
[5] = system: AsPC1 cells; details: SMAD4 deficient AsPC1; treated 17 h, 20 h, 23 h after synchronization; cited from earlier work
[6] = system: Panc1 cells; details: cited from earlier work

| SMILES | effect of drug application on rhythmicity of BMAL1 promoter activity [2] | effect of drug administration depending on time [4] | effect of drug administration depending on time after BMAL1 downregulation [4] | further results |
| --- | --- | --- | --- | --- |
| N.N.[Cl][Pt][Cl] [Cisplatin] | altered the rhythmicity of the core-clock gene BMAL1 |  |  | cell proliferation depending on timing of drug administration [1]: reduced cell proliferation for shNR1D1 and shPER2 cells, when cells were treated at 24 h after synchronization compared to the other time-points |
| CCc1c2c(nc3ccc(OC(=O)N4CCC(N5CCCCC5)CC4)cc13)-c1cc3c(c(=O)n1C2)COC(=O)[C@]3(O)CC [Irinotecan] | alters BMAL1 rhythmic promoter activity |  |  | variation of optimal circadian timing along the 24 hours [3]: up to 8 hour |
| O=C1[O][Pt]2([NH][C@@H]3CCCC[C@H]3[NH]2)[O]C1=O [Oxaliplatin] | altered the rhythmicity of the core-clock gene BMAL1 | time-dependent | this effect is lost |  |
| O=C(Oc1cccc(F)c1OC(=O)c1cccc(O)c1)c1cccc(O)c1 [WZB117] | altered the rhythmicity of the core-clock gene BMAL1 | time-dependent | this effect is lost |  |
| Nc1ccn([C@@H]2O[C@H](CO)[C@@H](O)C2(F)F)c(=O)n1 [gemcitabine] |  |  |  | response to time-dependent treatment [5]: this effect is not observed; differential drug response to different treatment time points after gene downregulation ([6]; Panc1 with downregulation of NR1D1 or SMAD4): the differential drug response to different treatment time points is impaired; response to time-dependent treatment ([6]; SMAD4 proficient Panc1, treated 17 h, 20 h, 23 h after synchronization): more resistant to treatment |
